These results are taken from ChEMBL document CHEMBL1136076, “A new class of histamine H(3)-receptor antagonists: synthesis and structure-activity relationships of 7,8,9,10-tetrahydro-6H-cyclohepta[b]quinolines” (Bioorg Med Chem Lett, 2003).

Some results are limits rather than exact numbers.

Assay [1] has as its target T1, Histamine H3 receptor (Homo sapiens, UniProt Q9Y5N1). Put plainly: Binding affinity towards cloned human H3L receptor.
Assay [2] addresses Histamine H3 receptor (Rattus norvegicus, UniProt Q9QYN8). Put plainly: Binding affinity towards rat cortical Histamine H3 receptor.
Assay [3] has as its target Histamine H1 receptor (Homo sapiens, UniProt P35367). Put plainly: Compound was tested for its binding affinity towards human H1 receptor.
Assay [4] concerns the target T1, Histamine H3 receptor. The experiment in a line: Compound was tested for its binding affinity towards human H3L receptor.
For assay [5], the target named is Histamine H2 receptor (Homo sapiens, UniProt P25021). The experiment in a line: Compound was tested for its binding affinity towards human H2 receptor.
Sequence of Histamine H2 receptor (P25021 whole entry): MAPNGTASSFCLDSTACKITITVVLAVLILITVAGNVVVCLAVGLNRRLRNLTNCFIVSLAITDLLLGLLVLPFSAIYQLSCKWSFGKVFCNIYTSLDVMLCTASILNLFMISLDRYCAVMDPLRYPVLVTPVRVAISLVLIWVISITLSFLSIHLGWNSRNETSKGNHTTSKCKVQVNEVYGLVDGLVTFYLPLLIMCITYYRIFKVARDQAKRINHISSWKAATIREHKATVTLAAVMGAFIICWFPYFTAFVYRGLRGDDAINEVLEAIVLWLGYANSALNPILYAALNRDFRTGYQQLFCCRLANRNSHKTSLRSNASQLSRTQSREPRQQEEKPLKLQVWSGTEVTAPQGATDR

In general, Ki refers to the dissociation constant of the complex between target and ligand, obtained from inhibition or displacement. Read a low Ki as tighter binding.

Sequence of Histamine H1 receptor (P35367 whole entry): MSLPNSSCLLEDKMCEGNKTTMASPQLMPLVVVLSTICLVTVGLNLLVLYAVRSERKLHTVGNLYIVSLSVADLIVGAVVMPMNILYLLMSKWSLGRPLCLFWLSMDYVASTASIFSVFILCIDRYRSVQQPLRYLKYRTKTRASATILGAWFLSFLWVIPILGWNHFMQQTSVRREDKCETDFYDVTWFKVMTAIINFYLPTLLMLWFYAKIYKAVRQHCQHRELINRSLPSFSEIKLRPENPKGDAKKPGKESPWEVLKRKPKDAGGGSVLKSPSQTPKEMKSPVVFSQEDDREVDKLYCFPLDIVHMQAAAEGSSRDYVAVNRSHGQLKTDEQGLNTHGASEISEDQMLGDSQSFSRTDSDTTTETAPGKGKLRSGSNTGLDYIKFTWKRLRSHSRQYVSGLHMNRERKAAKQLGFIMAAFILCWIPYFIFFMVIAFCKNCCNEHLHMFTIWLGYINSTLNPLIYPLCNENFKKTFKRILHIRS
T1 sequence (Q9Y5N1 whole entry): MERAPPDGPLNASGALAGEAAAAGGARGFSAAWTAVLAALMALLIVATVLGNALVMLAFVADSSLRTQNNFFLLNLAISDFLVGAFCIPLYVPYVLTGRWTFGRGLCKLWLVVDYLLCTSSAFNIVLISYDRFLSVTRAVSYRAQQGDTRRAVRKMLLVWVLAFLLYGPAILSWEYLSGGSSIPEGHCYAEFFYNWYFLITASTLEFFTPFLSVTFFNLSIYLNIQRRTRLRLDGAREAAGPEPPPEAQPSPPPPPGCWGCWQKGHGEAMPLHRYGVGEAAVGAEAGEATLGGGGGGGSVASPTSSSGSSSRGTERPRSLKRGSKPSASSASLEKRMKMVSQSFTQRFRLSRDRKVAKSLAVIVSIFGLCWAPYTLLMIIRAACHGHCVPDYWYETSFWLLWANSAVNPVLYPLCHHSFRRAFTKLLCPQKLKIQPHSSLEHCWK
Sequence of Histamine H3 receptor (Rattus norvegicus, UniProt Q9QYN8) (Q9QYN8 whole entry): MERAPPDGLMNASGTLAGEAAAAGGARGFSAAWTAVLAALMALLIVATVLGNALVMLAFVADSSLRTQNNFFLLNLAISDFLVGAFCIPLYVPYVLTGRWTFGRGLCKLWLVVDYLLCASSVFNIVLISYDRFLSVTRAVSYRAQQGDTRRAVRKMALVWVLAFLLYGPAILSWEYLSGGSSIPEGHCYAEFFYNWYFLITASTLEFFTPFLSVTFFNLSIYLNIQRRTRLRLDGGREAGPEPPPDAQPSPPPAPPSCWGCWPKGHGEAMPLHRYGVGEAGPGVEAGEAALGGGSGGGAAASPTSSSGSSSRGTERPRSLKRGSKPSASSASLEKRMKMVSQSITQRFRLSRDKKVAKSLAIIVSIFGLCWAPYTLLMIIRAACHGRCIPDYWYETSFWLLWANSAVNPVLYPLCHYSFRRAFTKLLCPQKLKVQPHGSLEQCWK

As for `CN(C)CCCCNc1c2c(nc3ccccc13)CCCCC2`, the Ki in assay [1] is 43.7 nM; in assay [2], 38.9 nM.

Take `c1ccc2c(N3CCCNCC3)c3c(nc2c1)CCCCC3`: the Ki in assay [1] and in assay [2] was more than 1000 nM in each case.

For the molecule `CN(C)CCCNc1c2c(nc3c1CCCC3)CCCCC2`, in assay [2], the Ki was 355 nM.

`CN1CCCC1CCNc1c2c(nc3ccccc13)CCCCC2` (stereo not drawn): the Ki was 4080 nM in assay [3]; 6.6 nM in assay [4]; 6.61 nM in assay [1]; 18.2 nM in assay [2]; 1730 nM in assay [5].

Regarding `OC[C@@H]1CCN(CCC#Cc2c3c(nc4ccccc24)CCCCC3)C1`, the Ki was 251 nM in assay [1] and 617 nM in assay [2].

For `CC(C)(C)OC(=O)N[C@H]1[C@@H]2CN(CCCNc3c4c(nc5ccccc35)CCCCC4)C[C@@H]21`, the results for the Ki in assay [1] and in assay [2] were 46.8 nM and 51.3 nM, respectively.

As for `CN(C)CCCNc1c2c(nc3ccccc13)CCSC2`, the Ki in assay [1] is 53.7 nM; in assay [2], 58.9 nM.

Turning to `C(#Cc1c2c(nc3ccccc13)CCCCC2)CCN1CCCC1`, the results for the inhibition constant Ki in assay [1] and in assay [2] were 214 nM and 646 nM, respectively.

Take `CN1CCN(CCC#Cc2c3c(nc4ccccc24)CCCCC3)CC1`: the Ki in assay [1] was 724 nM; in assay [2] it was more than 1000 nM.

`CN(C)CCCNc1c2c(nc3ccccc13)CCCCC2`: the Ki in assay [3] was 7700 nM; in assay [4], 9.7 nM; in assay [1], 9.77 nM; in assay [2], 21.9 nM; in assay [5], 10100 nM.

On to `CN(C)CCNc1c2c(nc3ccccc13)CCCCC2`, for which the Ki in assay [1] was 47.9 nM; in assay [2], 148 nM.

Consider `c1ccc2c(NCCCN3CCCC3)c3c(nc2c1)CCCCC3`, for which the Ki in assay [3] is 15700 nM; in assay [4] it was 6.6 nM; in assay [1], 1.74 nM; in assay [2] it was 2.51 nM; in assay [5] it was 3780 nM.

As to `C(=C/c1c2c(nc3ccccc13)CCCCC2)/CCN1CCCCC1`, the Ki in assay [1] was 87.1 nM; in assay [2] it was 275 nM.

`C(#Cc1c2c(nc3ccccc13)CCCCC2)CCN1CCCCC1`: the Ki in assay [3] is 1000 nM; in assay [4], 80 nM; in assay [1], 79.4 nM; in assay [2], 407 nM; in assay [5] it was 3210 nM.

`C(#Cc1c2c(nc3ccccc13)CCCCC2)CCN1CCCCCC1`: the Ki in assay [1] is 437 nM; in assay [2], more than 1000 nM.

`CN(C)CCC#Cc1c2c(nc3ccccc13)CCCCC2`: the Ki was 389 nM in assay [1] and 692 nM in assay [2].

Consider `c1ccc2c(NCCCn3ccnc3)c3c(nc2c1)CCCCC3`, for which the Ki in assay [1] and in assay [2] was more than 1000 nM throughout.

As to `CN1CCN(CCCNc2c3c(nc4ccccc24)CCCCC3)CC1`, the Ki was 51.3 nM in assay [1] and 97.7 nM in assay [2].

`c1ccc2c(NCCCN3CCOCC3)c3c(nc2c1)CCCCC3`: the Ki in assay [1] was 759 nM; in assay [2] it was 398 nM.

As to `CC(=O)N(CCCN(C)C)c1c2c(nc3ccccc13)CCCCC2`, the Ki in assay [1] was 1000 nM; in assay [2], more than 1000 nM.

Take `CC(C)(C)OC(=O)N1CCCN(c2c3c(nc4ccccc24)CCCCC3)CC1`: the Ki in assay [1] and in assay [2] was more than 1000 nM throughout.

For `CC(C)(C)OC(=O)N1CCN(c2c3c(nc4ccccc24)CCCCC3)CC1`, the Ki in assay [1] and in assay [2] was more than 1000 nM throughout.

For `OC[C@H]1CCN(CCC#Cc2c3c(nc4ccccc24)CCCCC3)C1`, the results for the Ki in assay [1] and in assay [2] were 955 nM and more than 1000 nM, respectively.

On to `C(#Cc1c2c(nc3ccccc13)CCCCC2)CCN1CCOCC1`, for which the Ki in assay [1] and in assay [2] was more than 1000 nM in each case.

Take `N[C@@H]1[C@H]2CN(CCCNc3c4c(nc5ccccc35)CCCCC4)C[C@@H]12`: the Ki in assay [1] is 44.7 nM; in assay [2], 74.1 nM.

For `C(#Cc1c2c(nc3ccccc13)CCCCCC2)CCN1CCCCC1`, the inhibitory constant (Ki) in assay [1] was 158 nM; in assay [2] it was 646 nM.
